{"source": "patent US20210379146A1", "about": "“METHOD TO RESTORE OR IMPROVE COGNITIVE FUNCTIONS” (INSERM (INSTITUT NATIONAL DE LA SANTÉ ET DE LA RECHERCHE …, priority 2018, published 2021)", "key": {"C57BL/6J male mice [1]": {"tested_on": "C57BL/6J male mice", "test": "Novel object recognition (NOR)", "type": "in vivo, mouse", "conditions": "for memory performance in testing phase of NOR: 3 month-old WT mice, single acute hippocampal stereotactic injection 12 hours before training phase"}, "C57BL/6J male mice [2]": {"tested_on": "C57BL/6J male mice", "test": "Contextual fear conditioning (CFC)", "type": "in vivo, mouse", "conditions": "for memory performance in testing phase of CFC: 3 month-old WT mice, single acute hippocampal stereotactic injection 12 hours before training phase"}, "C57BL/6J male mice [3]": {"tested_on": "C57BL/6J male mice", "conditions": "16 month-old mice, local hippocampal stereotactic injection 1 μg/hemisphere, versus 3 month-old mice"}, "[4]": {"tested_on": "hippocampal autophagy (LC3-II)", "conditions": "16 month-old mice, 12 hours after hippocampal stereotactic injection, 1 μg/hemisphere, compared with 3 month-old mice"}, "[5]": {"conditions": "16 month-old mice, 14 days of daily intraperitoneal injections, 450 μg"}, "[6]": {"conditions": "16 month-old mice, local hippocampal stereotactic injection 1 μg/hemisphere, versus 3 month-old mice"}}, "data": [{"compound": "Fc1ccc(CNc2ncnc3ccc(F)cc23)cc1", "note": "[Spautin-1, reference compound]", "values": [{"measurement": "memory performance in testing phase of NOR", "setting": "C57BL/6J male mice [1]", "value": "significant decrease in memory performance"}, {"measurement": "memory performance in testing phase of CFC", "setting": "C57BL/6J male mice [2]", "value": "significant decrease in memory performance"}]}, {"compound": "CCN(CC)CCCC(C)Nc1ccnc2cc(Cl)ccc12", "note": "(centres unmarked) [chloroquine, Chloroquine, reference compound]", "values": [{"measurement": "memory performance in testing phase of NOR", "setting": "C57BL/6J male mice [1]", "value": "significant decrease in memory performance"}, {"measurement": "memory performance in testing phase of CFC", "setting": "C57BL/6J male mice [2]", "value": "significant decrease in memory performance"}]}, {"compound": "CC(=O)N[C@@H](CC(C)C)C(=O)N[C@@H](CC(C)C)C(=O)N[C@H](C=O)CCCNC(=N)N", "note": "[leupeptin, Leupeptin, reference compound]", "values": [{"measurement": "memory performance in testing phase of NOR", "setting": "C57BL/6J male mice [1]", "value": "significant decrease in memory performance"}, {"measurement": "memory performance in testing phase of CFC", "setting": "C57BL/6J male mice [2]", "value": "significant decrease in memory performance"}]}, {"compound": "YGRKKRRQRRRGGTNVFNATFEIWHDGEFGT [TAT-Beclin 1]", "values": [{"measurement": "memory performance in testing phase of NOR", "setting": "C57BL/6J male mice [1]", "value": "enhanced learning/memory capacities"}, {"measurement": "age-related memory decline, NOR", "setting": "C57BL/6J male mice [1]; [5]", "value": "counteract normal age-related memory decline"}, {"measurement": "age-related memory deficits, NOR", "setting": "C57BL/6J male mice [1]; [6]", "value": "rescue age-related memory deficits"}, {"measurement": "age-related memory deficits, OLM", "setting": "C57BL/6J male mice [3]", "value": "rescue age-related memory deficits"}, {"measurement": "memory performance in testing phase of CFC", "setting": "C57BL/6J male mice [2]", "value": "enhanced learning/memory capacities"}, {"measurement": "age-related memory decline, CFC", "setting": "C57BL/6J male mice [2]; [5]", "value": "counteract normal age-related memory decline"}, {"measurement": "age-related memory deficits, CFC", "setting": "C57BL/6J male mice [2]; [6]", "value": "rescue age-related memory deficits"}, {"measurement": "LC3-II levels (Western blot)", "setting": "[4]", "value": "restored LC3-II levels in old (16 months) to the level of young (3 months) mice"}]}]}
